Measured values published in PMC12652692, “Synthesis and In Vitro Anticancer Evaluation of Novel Phosphonium Derivatives of Chrysin” (International Journal of Molecular Sciences, 2025).

Legend:
Test in all cases: NCI60 one-dose screen
Format in all cases: cell-based, human
UACC-62 = settings: UACC-62, 10 μM
Procedure: (§1) The screening results are presented in the Supplementary Materials (Table S1), where the cytotoxicity was determined for the 10 µM concentration. […] The negative numbers indicate significant decreases in the cell number. […] Compared to the reference chrysin (2), all phosphonium hybrids (3a–h) had significant antiproliferative activities. […] At the same time, it should be noted that more than 60% average reduction was also obtained in the case of the other examined conjugates (3a–h).
(§2) A detailed description of the NCI screening procedures, including the one-dose and five-dose tests, can be found in the Supplementary Materials, on the website of NCI [39], and in our previous work.
(§3) A detailed description of the NCI screening procedures can also be found on the website of NCI [39], and in our […]
(§4) All candidates were examined at first at a single high dose (10 μM) in the full NCI60 cell panel. The value reported for the one-dose test is growth relative to the no-drug control and relative to the time zero number of cells. This made possible the disclosure of both growth inhibition (numbers between 0 and 100) and lethality (numbers less than 0). For example, a value of 100 means no growth inhibition. A value of 20 would mean 80% growth inhibition. A value of 0 means no net growth over the course of the analysis. A value of −20 would mean 20% lethality. A value of −100 means all cells are dead. […]
(§5) concentration levels. The human tumor cell lines of the cancer screening panel were grown in RPMI 1640 medium containing 5% fetal bovine serum and 2 mM l-glutamine. Characteristically, cells were injected in 96-well microtiter plates in 0.1 mL at plating densities ranging from 5000 to 40,000 cells/well, depending on the doubling time of individual cell lines. After cell inoculation, the microtiter plates were incubated at 37 °C, 5% carbon dioxide, 95% air, and 100% relative humidity for 24 hours before the addition of tested compounds. After 24 hours, 2 plates of each cell line were fixed in situ with Cl3COOH (TCA), to represent a measurement of the cell population for each cell line at the time of drug addition (tz). Tested compounds were solubilized in DMSO at 400-fold the desired final maximum test concentration and stored frozen before application. In the course of the drug addition, an aliquot of frozen concentrate was thawed and diluted to twice the desired final maximum test concentration with a complete medium containing 50 μg mL−1 gentamicin. Additional four, 10-fold or ½ log serial dilutions were produced to furnish a total of five drug concentrations plus control. Aliquots of 0.1 mL of these different drug dilutions were added to the appropriate microtiter wells already containing 0.1 mL of medium, resulting in the required final drug concentrations.
(§6) Following drug addition, the plates were incubated at 37 °C, 5% carbon dioxide, 95% air, and 100% relative humidity for an additional 48 hours. For adherent cells, the test was finished by the addition of cold Cl3COOH. Cells were fixed in situ by the addition of 50 μL of cold 50% (w/v) Cl3COOH, and incubated at 4 °C for 1 hour. The supernatant was discarded, and the plates were washed with H2O (5×) and dried in air. Sulforhodamine B (SRB) solution (0.1 mL) at 0.4% (w/v) in 1% CH3COOH was added to each well, and plates were incubated at RT for 10 min. After staining, the unbound dye was removed by washing five times with 1% CH3COOH, and the plates were dried in the air. The bound stain is afterward solubilized with a 10 mM trizma base, and the absorbance is read on an automated plate reader at λ = 515 nm. Utilizing the seven absorbance measurements [time zero (tz), control growth (c), and test growth in the presence of the drug at the five concentration levels (ti)], the percentage growth was determined at each of the drug concentration levels. Growth inhibition (%) was calculated as:
(§7) [(ti − tz)/(c − tz)] × 100, for concentrations where ti ≥ tz (1) […]

T-47D = settings: 10 μM
Procedure: as §1, §2, §3, §4, §5, §6, §7

SR = settings: 10 μM
Procedure: as §1, §2, §3, §4, §5, §6, §7

PC-3 = settings: PC-3, 10 μM
Procedure: as §1, §2, §3, §4, §5, §6, §7

HOP-92 = settings: HOP-92, 10 μM
Procedure: as §1, §2, §3, §4, §5, §6, §7

Row | Structure (SMILES) | Growth percent (UACC-62) | Growth percent (T-47D) | Growth percent (SR) | Growth percent (PC-3) | Growth percent (HOP-92)
1 | O=c1cc(-c2ccccc2)oc2cc(OCCCC[P+](c3ccccc3)(c3ccccc3)c3ccccc3)cc(O)c12 [3a] | −59.51% | −62.52% | −39.83% | −87.34% | –
2 | Cc1ccc([P+](CCCCOc2cc(O)c3c(=O)cc(-c4ccccc4)oc3c2)(c2ccc(C)cc2)c2ccc(C)cc2)cc1 [3b] | −88.32% | −52.52% | −36.14% | – | –
3 | COc1ccc([P+](CCCCOc2cc(O)c3c(=O)cc(-c4ccccc4)oc3c2)(c2ccc(OC)cc2)c2ccc(OC)cc2)cc1 [3c] | – | – | – | −82.70% | −79.86%
4 | O=c1cc(-c2ccccc2)oc2cc(OCCCC[P+](c3ccc(F)cc3)(c3ccc(F)cc3)c3ccc(F)cc3)cc(O)c12 [3d] | −96.92% | −53.27% | −36.14% | – | –
5 | O=c1cc(-c2ccccc2)oc2cc(OCCCC[P+](C3CCCCC3)(C3CCCCC3)C3CCCCC3)cc(O)c12 [3e] | – | – | – | −70.81% | −75.86%
6 | COc1c(C)cc([P+](CCCCOc2cc(O)c3c(=O)cc(-c4ccccc4)oc3c2)(c2cc(C)c(OC)c(C)c2)c2cc(C)c(OC)c(C)c2)cc1C [3f] | −80.44% | −52.77% | 23.00% | −76.48% | −68.75%
7 | Cc1ccccc1[P+](CCCCOc1cc(O)c2c(=O)cc(-c3ccccc3)oc2c1)(c1ccccc1C)c1ccccc1C [3g] | −97.94% | – | – | −97.92% | −98.85%
8 | O=c1cc(-c2ccccc2)oc2cc(OCCCC[P+](c3ccccc3)(c3ccccc3)c3ccccn3)cc(O)c12 [3h] | −73.54% | −49.47% | 0.35% | −35.64% | −69.74%
9 | O=c1cc(-c2ccccc2)oc2cc(O)cc(O)c12 [compound 2, 5,7-dihydroxyflavone, reference compound] | 82.24% | 101.44% | 77.87% | 93.17% | 77.93%
